Consider four compounds from PMC12263422, “Cryo-EM structure of the human THIK-1 K2P K^+ channel reveals a lower Y gate regulated by lipids and anesthetics” (Nature Structural & Molecular Biology, 2025).

The target of this experiment is T1, THIK-1 Y273A (Homo sapiens, UniProt Q9HB14, Y273A).
T1 construct: expressed in transfected cells; host or cells: Xenopus oocytes (mRNA injection)
T1 sequence (Q9HB14 1-408 Y273A): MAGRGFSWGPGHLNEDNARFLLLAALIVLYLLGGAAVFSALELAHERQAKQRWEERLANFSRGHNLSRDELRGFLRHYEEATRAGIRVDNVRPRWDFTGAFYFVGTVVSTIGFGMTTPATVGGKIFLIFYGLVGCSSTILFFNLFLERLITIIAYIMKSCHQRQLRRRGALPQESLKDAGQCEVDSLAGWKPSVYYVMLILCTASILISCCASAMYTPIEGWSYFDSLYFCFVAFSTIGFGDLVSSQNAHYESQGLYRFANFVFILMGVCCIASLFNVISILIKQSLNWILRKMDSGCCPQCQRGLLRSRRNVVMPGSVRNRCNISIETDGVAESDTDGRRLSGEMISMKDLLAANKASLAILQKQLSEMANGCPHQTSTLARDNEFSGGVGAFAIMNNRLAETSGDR
In words: Inside-out excised patch recordings, oocytes, THIK-1 Y273A mutant. It counts as cell-based. Further details: Halothane inhibition: concentration or dose not given beside the values. From the text: Human K2P13.1 THIK-1 (GenBank accession number: NM_022054) and human K2P12.1 THIK-2 (NM_022055.1) were used in this study. For functional expression studies, the respective K^+ channel subtype coding sequences were subcloned into the oocyte expression vector pSGEM or the dual-purpose expression vector pFAW[41] and verified by sequencing. All mutant channels were obtained by site-directed mutagenesis and verified by sequencing. To increase surface expression and macroscopic currents, measurements of THIK-2 channels used a mutated ER retention motif, (R11A R12A R14A R15A R16A; THIK-2*)[20]. Vector DNA was linearized with NheI or MluI, and mRNA was synthesized in vitro using the SP6 or T7 AmpliCap Max High Yield Message Maker Kit (Cellscript, USA) or HiScribe T7 ARCA mRNA Kit (New England Biolabs).
Two-electrode voltage–clamp (TEVC) studies were performed in Xenopus oocytes. All animal use conformed to the Guide for the Care and Use of Laboratory Animals (NIH Publication 85–23), and all experiments using Xenopus toads were approved by the local ethics panels. Oocytes were stored at 17 °C in ND96 recording solution composed of (in mM): 96 NaCl, 2 KCl, 1.8 CaCl2, 1 MgCl2, 5 HEPES (pH 7.5 adjusted with NaOH and HCl), supplemented with Na-pyruvate (275 mg L^–1), theophylline (90 mg L^–1) and gentamicin (50 mg L^–1). Oocytes were injected with 1 ng mRNA for WT or mutant channels, and were incubated for 24–48 h at 17 °C. Two-electrode voltage clamp recordings were then performed as previously described[42],[43]. For macroscopic patch–clamp measurements, oocytes were obtained as described above incubated at 17 °C in a solution containing (mM): 54 NaCl, 30 KCl, 2.4 NaHCO3, 0.82 MgSO4 ×7 H2O, 0.41 CaCl2, 0.33 Ca(NO3)2 ×4 H2O and 7.5 TRIS (pH 7.4 adjusted with NaOH and HCl) for 1–4 days before use. Excised patch recordings in inside-out configuration conditions were performed at room temperature. […] Intracellular bath solutions and compounds were applied to the cytoplasmic side of excised patches for the various K^+ channels through a gravity flow multi-barrel pipette system. The intracellular solution had the following composition (in mM): 120 KCl, 10 HEPES, 2 EGTA and 1 pyrophosphate (pH adjusted with KOH and HCl). Currents were recorded with an EPC10 amplifier (HEKA Electronics) and sampled at 10 kHz or higher, with filtering set to 3 kHz (–3 dB) or higher, as appropriate for sampling rate. For measurements of GPCR activation, whole-cell currents were recorded for THIK-1 in transiently transfected HEK-293 cells. Cells were stimulated by a ramp protocol between −100 and +60 mV (holding potential, −80 mV). The pipette solution was composed of (in mM): 140 KCl, 2 MgCl2, 1 CaCl2, 2.5 EGTA and 10 HEPES (pH 7.3 adjusted with KOH and HCl). The extracellular bath solution had the following composition (in mM): 135 NaCl, 5 KCl, 2 MgCl2, 2 CaCl2, 10 glucose and 10 HEPES pH (pH 7.3 adjusted with NaOH and HCl). Oxotremorine M (Oxo-M) was added to extracellular bath solution to obtain the final concentration. Single-channel currents were recorded with an Axopatch 200B amplifier through a Digidata 1440A digitizer (Molecular Devices). Data were filtered at 2 kHz and recorded at a 200-kHz sampling rate with the program Clampex (Molecular Devices). Pipette solution and bath solution for cell-attached recordings contained (in mM): 140 KCl, 2 MgCl2, 1 CaCl2 and 10 HEPES (pH 7.4 adjusted with KOH and HCl). For inside-out recordings, the bath solution contained (in mM): 140 KCl, 2 MgCl2, 1 CaCl2 and 10 HEPES (pH 7.2 adjusted with KOH and HCl). All experiments were conducted at room temperature.
TPenA, linoleic acid, L-α-phosphatidylinositol 4,5-bisphosphate (brain PI(4,5)P2, PIP2) (Sigma-Aldrich and Merck) and oleoyl-CoA (LC-CoA 18:1) (Avanti Polar Lipids) were prepared as stocks (1–100 mM) in DMSO, stored at −80 °C and diluted to the final concentration in the intracellular recording solution. Oxo-M (Tocris Bioscience,) was prepared as 50 mM stock in H2O. […]

Where “and” joins values, the source holds several entries; their conditions need not be identical. Equal values may be shown once.

On to `CCCCC[N+](CCCCC)(CCCCC)CCCCC` [TPenA, tetrapentylammonium], for which the Normalized currents is, setting by setting: (TPenA 0.1 µM, THIK-1 Y273A) 1.00; (TPenA 1 µM, THIK-1 Y273A) 0.96; (TPenA 4 µM, THIK-1 Y273A) 0.84; (TPenA 15.6 µM, THIK-1 Y273A) 0.65; (TPenA 62.5 µM, THIK-1 Y273A) 0.41; (TPenA 250 µM, THIK-1 Y273A) 0.19. Moreover, the Normalized currents is, setting by setting: (TPenA 1000 µM, THIK-1 Y273A) 0.07; (TPenA 4000 µM, THIK-1 Y273A) 0.03. For the same compound, the “τ of 1 mM TPenA block” value by setting is: (Y273A, individual recordings) 0.054 s and 0.134 s and 0.071 s and 0.075 s and 0.076 s and 0.081 s and 0.059 s and 0.121 s and 0.057 s and 0.060 s; (Y273A, mean) 0.08 s. The “τ of 1 mM TPenA release” value is 0.946 s and 0.858 s and 0.474 s and 1.777 s and 0.915 s and 1.232 s and 0.747 s and 0.935 s and 0.998 s and 1.301 s (Y273A, individual recordings); 1.02 s (Y273A, mean).
In general, inhibition refers to the drop in the measured response relative to a control, in per cent. In the case of `FC(F)OC(Cl)C(F)(F)F` (stereo not drawn) [Isoflurane, isoflurane], where the note is “4.9 mM Isoflurane, Y273A, individual recordings”, the “Inhibition (%)” value was 36.141% and 64.534% and 64.029% and 67.231% and 69.534% and 60.746% and 65.223% and 43.937% and 15.847% and 38.113% and 40.962% and 42.936%. In addition, the inhibition at 242 µM (isoflurane 0.242 mM, THIK-1 Y273A) came to 9.07%. For the same compound, at 485 µM the inhibition (isoflurane 0.485 mM, THIK-1 Y273A) was 17.7%. The compound further displayed an inhibition at 2420 µM (isoflurane 2.42 mM, THIK-1 Y273A) of 30.9%. Under “isoflurane 4.85 mM, THIK-1 Y273A”, this compound showed an inhibition at 4850 µM of 50.8%. Also, the inhibition at 24200 µM (isoflurane 24.2 mM, THIK-1 Y273A) was 75%.
Turning to `FC(F)(F)C(Cl)Br` (stereo not drawn) [halothane], the “Inhibition (%)” value (3.0 mM halothane, Y273A, individual recordings) is 24.640% and 18.199% and 20.441% and 32.359% and 23.062% and 35.325% and 35.762% and 32.640% and 40.661% and 24.150% and 21.311% and 24.444% and 21.407% and 27.084%. This compound showed an inhibition at 3000 µM (3.0 mM halothane, Y273A, mean) of 27.2%. Further, the Halothane inhibition runs as follows: (THIK-1 Y273A, 4 K+ ex., individual recordings) 48.800% and 50.390% and 50.850% and 54.290% and 50.150% and 44.140% and 43.970% and 46.310% and 43.270% and 42.110%; (THIK-1 Y273A, 4 K+ ex., mean) 47.43%; (THIK-1 Y273A, 120 K+ ex., individual recordings) 50.140% and 54.850% and 53.810% and 41.990% and 54.110% and 49.130% and 50.870% and 49.910% and 52.660%; (THIK-1 Y273A, 120 K+ ex., mean) 50.83%.
Regarding `FCOC(C(F)(F)F)C(F)(F)F` [Sevoflurane, sevoflurane], under “0.24 mM Sevoflurane, Y273A, individual recordings”, the “Inhibition (%)” value was 39.37% and 26.75% and 26.20% and 15.99% and 28.93% and 17.93% and 28.11%. The same compound returned an inhibition at 240 µM (0.24 mM Sevoflurane, Y273A, mean) of 26.2%. For the setting “THIK-1 Y273A, 0.023 mM sevoflurane”, this compound displayed an inhibition at 23 µM of 6.96%. For the setting “THIK-1 Y273A, 0.047 mM sevoflurane”, the inhibition at 47 µM was 10.4%. The compound also registered an inhibition at 468 µM (THIK-1 Y273A, 0.468 mM sevoflurane) of 38.6%. Also, under “THIK-1 Y273A, 2.34 mM sevoflurane”, the inhibition at 2340 µM worked out at 62.5%.
